Reference: paper PMC4459817, “Vasculotide reduces endothelial permeability and tumor cell extravasation in the absence of binding to or agonistic activation of Tie2” (EMBO Molecular Medicine, 2015)

System: mouse Tie2-Fc (extracellular domain of Tie2)
Assay: pull-down assay, mouse Tie2-Fc
Format: binding
Details: mouse Tie2-Fc on protein A sepharose; rhAng1 20 ng or VT 100 ng, pH 7.4, 4°C; Fig9A,B
Description: To better understand the difficulties we had in observing Tie2 activation by VT, we sought to characterize the binding affinity and kinetics of VT to Tie2. Purified human or mouse Tie2-Fc (i.e., Fc-conjugated extracellular domains of Tie2) were first coupled to protein A sepharose beads for pull-down experiments (Fig9A and B) or immobilized on a Biacore CM5 sensor chip for surface plasmon resonance (SPR) experiments (Fig9C and Supplementary Fig S3).
Figure 9 Binding of Vasculotide vs. Ang1 variants to the extracellular domain of Tie2 • A–B Pull-down assay. Input ligands—rhAng1 (A) and VT (B)—were incubated with either protein A sepharose beads only, bead-conjugated mouse Tie2-Fc (mTie2), or bead-conjugated human Tie2-Fc (hTie2). […] The ‘unbound’ fraction is 7% of residual/free ligands remaining in the supernatant. • C Quantitative kinetics analysis by SPR. All analytes were run at increasing concentrations of 0.625, 1.25, 2.5, 5, and 10 nM, at 37°C and pH 7.4. […] Source data are available online for this figure. […]
Semi-quantitative densitometry analysis of immunoblots was performed using the ChemiGenius2 bioimaging system and GeneSnap/GeneTools software (Syngene). […]

Molecule | pull-down by Tie2-Fc
CHHHRHSF [Vasculotide, 4-armed maleimide-functionalized polyethylene glycol (PEG) backbone to link together four cysteine-capped T7 peptides, that is, CHHHRHSF] | did not pull down any appreciable levels
recombinant human Ang1 (rhAng1) (ligand, UniProt Q15389 16-498, looked up, angiopoietin-1, human, recombinant; also called angiopoietin-1; source: bought: R&D Systems (named for the Boyden chamber experiments)) HIGCSNQRRSPENSGRRYNRIQHGQCAYTFILPEHDGNCRESTTDQYNTNALQRDAPHVEPDFSSQKLQHLEHVMENYTQWLQKLENYIVENMKSEMAQIQQNAVQNHTATMLEIGTSLLSQTAEQTRKLTDVETQVLNQTSRLEIQLLENSLSTYKLEKQLLQQTNEILKIHEKNSLLEHKILEMEGKHKEELDTLKEEKENLQGLVTRQTYIIQELEKQLNRATTNNSVLQKQQLELMDTVHNLVNLCTKEGVLLKGGKREEEKPFRDCADVYQAGFNKSGIYTIYINNMPEPKKVFCNMDVNGGGWTVIQHREDGSLDFQRGWKEYKMGFGNPSGEYWLGNEFIFAITSQRQYMLRIELMDWEGNRAYSQYDRFHIGNEKQNYRLYLKGHTGTAGKQSSLILHGADFSTKDADNDNCMCKCALMLTGGWWFDACGPSNLNGMFYTAGQNHGKLNGIKWHYFKGPSYSLRSTTMMIRPLDF | effectively pulled down the majority
